The text below walks through data of patent publication US20240391931A1 (Bristol-Myers Squibb Company, priority 2021, published 2024).

pEC50: −log10 of the molar value. Bounds are passed on as bounds.

In test [1] the target is HER2YVMA (Homo sapiens, UniProt P04626, INS775YVMA). The test is described as follows: HER2 signaling (pHER2) in BEAS2B-HER2YVMA cells. More on the design: expressed in transfected cells; host or cells: HEK293 (pool), Ba/F3 (clones), BEAS2B (clones); lentiviral vector pCDH-CMV-MCS-EF1-Neo. As to conditions: read-out: BEAS2B YVMA pHER2 EC50. The test is classed as cell-based. The procedure:
Cell culture, plasmid cloning, and lentiviral transduction were carried out according to standard procedures. The Human HER2 cDNA construct in pCMV6-Entry for the HER2 wildtype (WT) expression was obtained from Origene. The HER2 cDNA including the 12-nucleotide insertion corresponding to YVMA insertion (HER2YVMA) was codon optimized, synthesized and cloned by GenScript (Piscataway, NJ) in pcDNA3.1. The lentiviral constructs expressing HER2YVMA and HER2 WT were sub-cloned using PCR at System Biosciences (SBI, Mountainview, CA) into lentiviral vectors pCDH-CMV-MCS-EF1-Neo and lentiviral particles were generated.
Engineered lines expressing HER2YVMA and HER2 WT were prepared in HEK293 (human embryonic kidney cells), Ba/F3 (Interleukin 3 (IL3)-dependent murine pro B cell line), and BEAS2B (primary immortalized human bronchial epithelial cell line). […]
HER2 signaling was assessed in BT474 and N87 cell lines which endogenously overexpress the HER2 wildtype (WT) protein, in NCI-H1781 cells which endogenously expresses a HER2 mutant protein containing a VC insertion in the kinase domain (HER2VC or G776delinsVC), and in engineered cell lines transduced to express the Her2 mutant protein containing the YVMA insertion (Hek293-HER2YVMA and BEAS2B-HER2YVMA). […]
HER2 signaling was evaluated using phospho (Tyr1248)/total ErbB2 whole cell lysate MSD plates (Meso-Scale Discovery, Gaithersburg, MD). […]

The target in test [2] is T1, HER2 (Homo sapiens, UniProt P04626).
T1 construct: BT474 and N87 cell lines which endogenously overexpress the HER2 wildtype (WT) protein; endogenous in cells; host or cells: BT474, N87
As to the kind of experiment: HER2 occupancy assay in BT474 cells. The class given is cell-based. As to conditions: concentration at which 50% of HER2 is irreversible bound, read-out: BT474 HER2 Occ. The protocol: In order to assess free HER2 protein, a biotinylated probe was utilized. BT474, N87, and Ba/F3-HER2YVMA cells were treated with test compound as described for HER2 signaling. After compound treatment, cells were washed three times with cold phosphate buffer saline (PBS, Life Technologies, Carlsbad, CA), and lysed in modified occupancy lysis buffer prepared with an irreversible biotinylated tool compound (1 μM) in 25 mM Tris pH 7.5, 150 mM NaCl, 1% Triton, and supplemented with cOmplete, EDTA-free Protease inhibitor cocktail (Roche), Phosphatase Inhibitor Cocktails 2 and 3 (Sigma-Aldrich), and 1 mM PMSF (Sigma-Aldrich).
To determine % occupancy, lysates were loaded into duplicate plates of the phospho (Tyr1248)/total ErbB2 whole cell lysate MSD kit (Meso-Scale Discovery) and incubated overnight. Plates were washed and incubation with either HER2-sulfoTag (1:50, Meso Scale Discovery) or Strep-Sulfo Tag (1:1000, Meso Scale Discovery), for detection of […]. A standard curve of untreated cells in serial dilution was included in each plate to independently fit streptavidin (Free HER2) and total HER2 MSD signals; non-specific signal (BSA control spots) was subtracted from each well. Free HER2 was then normalized by total HER2 for each sample. The results are reported as % DMSO control. The normalized data was fitted using a sigmoidal curve analysis program (Graph Pad Prism version 6) with variable Hill slope to determine EC50 values. The results are provided in Table 4, under columns titled “BT474-HER2 Occ”, “N87-HER2 Occ”, and “Ba/F3 YVMA-HER2 Occ”. HER2 Occ is the concentration of test compound at which 50% of HER2 is irreversible bound.

T1 sequence (P04626 23-1255): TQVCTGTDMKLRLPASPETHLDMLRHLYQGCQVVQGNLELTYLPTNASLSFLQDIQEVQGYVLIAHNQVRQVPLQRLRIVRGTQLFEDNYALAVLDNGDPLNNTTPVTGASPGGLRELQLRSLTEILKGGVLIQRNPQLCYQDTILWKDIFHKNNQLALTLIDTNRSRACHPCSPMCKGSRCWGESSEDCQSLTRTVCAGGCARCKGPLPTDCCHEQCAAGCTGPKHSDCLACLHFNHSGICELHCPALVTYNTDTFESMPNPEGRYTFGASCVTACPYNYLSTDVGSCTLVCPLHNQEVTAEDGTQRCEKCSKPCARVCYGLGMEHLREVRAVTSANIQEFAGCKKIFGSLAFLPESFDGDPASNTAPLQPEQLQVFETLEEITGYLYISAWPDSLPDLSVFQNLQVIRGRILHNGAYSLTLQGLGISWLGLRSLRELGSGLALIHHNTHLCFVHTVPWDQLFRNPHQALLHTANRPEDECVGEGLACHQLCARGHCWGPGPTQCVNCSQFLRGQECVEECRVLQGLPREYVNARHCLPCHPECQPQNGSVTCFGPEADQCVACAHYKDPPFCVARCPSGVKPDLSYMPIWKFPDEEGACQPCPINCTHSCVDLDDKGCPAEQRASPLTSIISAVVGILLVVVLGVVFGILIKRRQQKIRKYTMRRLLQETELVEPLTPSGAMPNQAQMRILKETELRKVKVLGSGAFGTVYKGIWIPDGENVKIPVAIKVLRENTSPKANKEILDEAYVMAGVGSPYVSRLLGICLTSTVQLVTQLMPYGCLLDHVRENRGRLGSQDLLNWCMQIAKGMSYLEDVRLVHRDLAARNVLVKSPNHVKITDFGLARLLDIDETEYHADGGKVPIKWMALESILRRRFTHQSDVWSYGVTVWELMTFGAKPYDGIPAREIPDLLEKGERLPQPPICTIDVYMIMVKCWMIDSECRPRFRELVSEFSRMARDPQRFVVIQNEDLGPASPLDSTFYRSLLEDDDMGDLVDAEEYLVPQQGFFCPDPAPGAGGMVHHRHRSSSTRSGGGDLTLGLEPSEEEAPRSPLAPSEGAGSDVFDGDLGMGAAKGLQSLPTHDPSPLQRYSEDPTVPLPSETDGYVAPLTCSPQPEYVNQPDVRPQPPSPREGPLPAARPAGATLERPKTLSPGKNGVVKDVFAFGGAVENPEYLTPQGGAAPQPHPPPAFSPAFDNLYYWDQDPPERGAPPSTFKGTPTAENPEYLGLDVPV
Chain of HER2YVMA (P04626 with tags, fused parts or gaps INS775YVMA): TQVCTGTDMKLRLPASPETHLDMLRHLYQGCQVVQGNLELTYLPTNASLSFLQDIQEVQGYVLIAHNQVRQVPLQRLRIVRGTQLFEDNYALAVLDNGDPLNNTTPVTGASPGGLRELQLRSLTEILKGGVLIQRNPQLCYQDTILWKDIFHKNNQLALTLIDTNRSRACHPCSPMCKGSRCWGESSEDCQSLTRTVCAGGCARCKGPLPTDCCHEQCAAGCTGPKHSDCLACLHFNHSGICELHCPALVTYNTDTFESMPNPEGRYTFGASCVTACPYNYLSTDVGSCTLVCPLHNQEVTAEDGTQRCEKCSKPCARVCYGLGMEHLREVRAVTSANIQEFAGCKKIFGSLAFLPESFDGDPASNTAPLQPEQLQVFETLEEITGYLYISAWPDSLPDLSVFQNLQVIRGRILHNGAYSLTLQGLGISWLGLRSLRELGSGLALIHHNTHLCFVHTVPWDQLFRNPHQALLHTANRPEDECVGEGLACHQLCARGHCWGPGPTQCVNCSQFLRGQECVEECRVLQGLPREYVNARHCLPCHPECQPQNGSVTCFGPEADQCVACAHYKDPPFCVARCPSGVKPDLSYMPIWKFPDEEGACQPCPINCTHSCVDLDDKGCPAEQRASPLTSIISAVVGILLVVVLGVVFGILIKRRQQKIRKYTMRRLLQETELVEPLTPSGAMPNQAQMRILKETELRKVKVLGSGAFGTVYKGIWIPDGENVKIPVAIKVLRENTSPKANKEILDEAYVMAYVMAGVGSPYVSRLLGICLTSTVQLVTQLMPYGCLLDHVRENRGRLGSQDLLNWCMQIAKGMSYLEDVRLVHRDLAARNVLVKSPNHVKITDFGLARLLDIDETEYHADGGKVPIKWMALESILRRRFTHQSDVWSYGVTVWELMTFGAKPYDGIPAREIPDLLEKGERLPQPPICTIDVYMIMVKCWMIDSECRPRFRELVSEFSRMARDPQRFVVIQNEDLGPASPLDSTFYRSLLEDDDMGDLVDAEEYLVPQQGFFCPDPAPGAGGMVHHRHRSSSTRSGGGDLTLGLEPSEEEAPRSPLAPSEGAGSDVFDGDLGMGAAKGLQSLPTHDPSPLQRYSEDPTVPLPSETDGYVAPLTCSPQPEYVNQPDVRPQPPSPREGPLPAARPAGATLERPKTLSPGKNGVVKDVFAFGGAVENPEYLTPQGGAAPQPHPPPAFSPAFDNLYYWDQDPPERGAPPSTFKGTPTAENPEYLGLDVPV

On to `Cc1ccc(Oc2ccc(Nc3ncnc4sc5c(c34)CCN(C(=O)/C=C/CN(C)C)C5)cc2C)cn1` [Compound 8, (E)-4-(Dimethylamino)-1-(4-((3-methyl-4-((6-methylpyridin-3-yl)oxy)phenyl)amino)-5,6-dihydropyrido[4′,3′:4,5]thieno[2,3-d]pyrimidin-7(8H)-yl)but-2-en-1-one], for which the pEC50 in test [1] and in test [2] was over 7.00 each time.
For `Cc1cc(Nc2ncnc3sc4c(c23)CCN(C(=O)/C=C/CN2CCOCC2)C4)ccc1Oc1ccc2ncnn2c1` [Compound 12], in test [2], the pEC50 is over 7.00.
